US6617131B2, “Nucleic acid molecule encoding the potassium channel protein, KCNQ5” (Aventis Pharma Deutschland GmbH, priority 2000, dated 2003)

Key:
KCNQ2 = KCNQ2 (Homo sapiens, UniProt O43526); details: cited from earlier work
hKCNQ5 = biological target: T1, hKCNQ5 (Homo sapiens, UniProt Q9NR82); test: two-electrode voltage-clamp of KCNQ5 currents in Xenopus oocytes; assay type: cell-based
T1 construct: A composite full-length cDNA construct was assembled from two overlapping cDNA clones and subcloned into the Xenopus expression vector pSGEM; expressed in transfected cells; host or cells: Xenopus laevis oocytes injected with in vitro transcribed capped cRNA (vector pSGEM)
Source text: A, representative current traces from a KCNQ5 injected oocyte subjected to a pulse protocol that stepped the membrane potential from holding potential (−100 mV) to test pulses from −100 to +50 mV and back to holding potential. B, I-V relationships for KCNQ5 expressing oocytes (n=12) recorded using the protocol in A. C, tail current reversal potential of KCNQ 5 currents as a function of extracellular K^+ concentration. The dashed line is drawn according to the Nernst equation for a perfectly selective K^+ channel (n=5). D, effects of TEA, clofilium, quinidine, and chromanol 293 B on KCNQ 5 current. Superimposed currents were obtained during a 3 s depolarizing step from −100 mV to 0 mV, during the same experiment. […]
Xenopus laevis oocytes were obtained from tricaine anaesthetized animals. […] Macroscopic currents were recorded 2-4 days after injection. […]
The possible function of KCNQ5 as a potassium channel was addressed by electrophysiological analysis of Xenopus oocytes injected with KCNQ5 cRNA transcribed in vitro. Two to four days after injection novel currents were detected that were not observed in water-injected control oocytes. […] The two components of deactivation were determined at a repolarizing voltage of −100 mV following a 3s depolarizing step to +40 mV. […]

KCNQ3 = KCNQ3 (Rattus norvegicus, UniProt O88944); details: as reported; cited from earlier work
Chain of KCNQ3 (O88944 whole entry): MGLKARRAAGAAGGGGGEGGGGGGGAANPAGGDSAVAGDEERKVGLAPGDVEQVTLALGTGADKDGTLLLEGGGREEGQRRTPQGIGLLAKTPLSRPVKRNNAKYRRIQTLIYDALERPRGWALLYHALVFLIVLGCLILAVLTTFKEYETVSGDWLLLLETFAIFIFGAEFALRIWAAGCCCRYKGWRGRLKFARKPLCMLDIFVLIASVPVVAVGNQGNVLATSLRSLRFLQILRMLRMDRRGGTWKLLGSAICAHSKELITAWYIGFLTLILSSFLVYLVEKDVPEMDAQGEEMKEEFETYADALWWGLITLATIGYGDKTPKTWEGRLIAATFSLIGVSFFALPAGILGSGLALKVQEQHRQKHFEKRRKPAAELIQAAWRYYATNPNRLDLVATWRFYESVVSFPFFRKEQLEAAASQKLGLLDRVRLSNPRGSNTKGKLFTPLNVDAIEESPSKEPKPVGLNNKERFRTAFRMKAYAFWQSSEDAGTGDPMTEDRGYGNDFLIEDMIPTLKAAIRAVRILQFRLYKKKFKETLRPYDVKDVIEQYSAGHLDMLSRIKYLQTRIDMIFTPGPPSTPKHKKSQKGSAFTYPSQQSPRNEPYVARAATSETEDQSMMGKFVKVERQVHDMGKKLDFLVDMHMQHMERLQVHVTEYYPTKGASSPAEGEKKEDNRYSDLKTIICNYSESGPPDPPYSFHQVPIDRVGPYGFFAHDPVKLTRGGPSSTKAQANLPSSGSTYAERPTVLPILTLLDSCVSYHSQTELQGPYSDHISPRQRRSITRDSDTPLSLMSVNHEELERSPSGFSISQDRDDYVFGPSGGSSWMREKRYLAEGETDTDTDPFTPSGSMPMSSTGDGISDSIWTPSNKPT

T1 sequence (Q9NR82 whole entry): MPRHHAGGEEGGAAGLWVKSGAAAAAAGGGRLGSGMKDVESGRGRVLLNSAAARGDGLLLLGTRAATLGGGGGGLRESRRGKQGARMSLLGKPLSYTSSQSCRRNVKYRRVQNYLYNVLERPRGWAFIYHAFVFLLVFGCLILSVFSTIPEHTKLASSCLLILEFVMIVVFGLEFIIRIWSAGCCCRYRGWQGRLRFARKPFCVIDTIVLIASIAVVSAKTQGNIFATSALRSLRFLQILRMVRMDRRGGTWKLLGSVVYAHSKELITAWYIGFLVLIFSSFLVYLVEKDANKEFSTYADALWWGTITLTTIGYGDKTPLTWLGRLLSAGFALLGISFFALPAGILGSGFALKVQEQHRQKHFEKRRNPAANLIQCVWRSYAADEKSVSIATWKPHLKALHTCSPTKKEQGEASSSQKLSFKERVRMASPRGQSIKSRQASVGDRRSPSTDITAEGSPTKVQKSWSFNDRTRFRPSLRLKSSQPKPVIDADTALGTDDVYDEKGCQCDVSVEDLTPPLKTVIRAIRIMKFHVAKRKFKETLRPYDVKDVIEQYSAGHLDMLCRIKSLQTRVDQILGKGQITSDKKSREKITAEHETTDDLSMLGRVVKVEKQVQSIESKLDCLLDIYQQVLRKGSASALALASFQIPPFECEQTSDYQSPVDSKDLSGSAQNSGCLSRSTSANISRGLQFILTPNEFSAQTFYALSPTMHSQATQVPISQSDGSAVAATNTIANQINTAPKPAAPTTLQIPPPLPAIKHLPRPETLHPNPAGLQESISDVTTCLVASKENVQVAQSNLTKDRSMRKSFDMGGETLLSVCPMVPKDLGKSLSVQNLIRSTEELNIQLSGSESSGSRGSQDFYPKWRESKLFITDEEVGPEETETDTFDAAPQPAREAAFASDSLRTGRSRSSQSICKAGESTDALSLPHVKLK
Chain of KCNQ2 (O43526 whole entry): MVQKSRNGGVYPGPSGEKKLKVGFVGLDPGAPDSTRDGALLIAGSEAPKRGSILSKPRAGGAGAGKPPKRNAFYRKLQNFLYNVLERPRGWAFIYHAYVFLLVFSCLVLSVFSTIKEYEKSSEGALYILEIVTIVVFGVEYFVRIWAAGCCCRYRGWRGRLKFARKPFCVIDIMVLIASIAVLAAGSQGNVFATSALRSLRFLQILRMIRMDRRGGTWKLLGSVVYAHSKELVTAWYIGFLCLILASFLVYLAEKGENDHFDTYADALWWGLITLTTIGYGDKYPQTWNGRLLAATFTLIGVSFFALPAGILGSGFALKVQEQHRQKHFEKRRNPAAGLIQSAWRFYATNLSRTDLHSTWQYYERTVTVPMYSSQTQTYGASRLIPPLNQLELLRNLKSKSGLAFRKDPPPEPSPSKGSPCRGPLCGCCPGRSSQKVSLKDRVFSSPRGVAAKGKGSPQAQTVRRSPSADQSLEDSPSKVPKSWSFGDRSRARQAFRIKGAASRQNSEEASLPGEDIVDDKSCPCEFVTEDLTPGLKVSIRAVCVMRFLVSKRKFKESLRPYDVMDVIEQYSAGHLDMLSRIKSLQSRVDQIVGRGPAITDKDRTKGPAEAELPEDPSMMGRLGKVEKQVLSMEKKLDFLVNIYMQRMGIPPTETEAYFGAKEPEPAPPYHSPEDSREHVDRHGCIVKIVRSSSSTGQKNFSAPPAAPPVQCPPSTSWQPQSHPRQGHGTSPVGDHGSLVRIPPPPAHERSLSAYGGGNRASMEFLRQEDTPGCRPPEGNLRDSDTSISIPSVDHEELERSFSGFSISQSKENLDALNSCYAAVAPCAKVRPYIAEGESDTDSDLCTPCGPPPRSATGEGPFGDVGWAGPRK

SMILES: CCCCCCC[N+](CC)(CC)CCCCc1ccc(Cl)cc1 [Clofilium]
- inhibition of KCNQ2 (KCNQ2; 10 μM): little inhibition

SMILES: CC[N+](CC)(CC)CC [TEA, tetraethylammonium]
- sensitivity of KCNQ5 currents to the blocker (hKCNQ5): insensitive
- sensitivity of KCNQ2 to the blocker (KCNQ2): high sensitivity
- sensitivity of KCNQ3 to the blocker (KCNQ3): insensitive

SMILES: C=C[C@H]1C[N@@]2CC[C@H]1C[C@@H]2[C@@H](O)c1ccnc2ccc(OC)cc12 [quinidine]
- block of KCNQ5 currents (hKCNQ5; 300 μM, 3 s step from −100 mV to 0 mV): 50%
